Experiment: mn = molality of the nth substance listed, in mol/kg
Conditions: for surface tension liquid-gas: Ring tensiometer; for viscosity / speed of sound / mass density: 101.3 kPa, Liquid; for viscosity: Capillary tube (Ostwald / Ubbelohde) method

O=[N+]([O-])[O-].O=[N+]([O-])[O-].[Zn+2] [nitric acid, zinc salt] + O
Conditions	mass density [kg/m3]	speed of sound [m/s]	surface tension liquid-gas [mN/m]	viscosity [mPa·s]
293.15 K, m1 = 0.0875	–	1489.1	–	–
293.15 K, m1 = 0.1329	–	1488.6	–	1.053
293.15 K, m1 = 0.2466	–	1494.3	–	1.086
293.15 K, m1 = 0.3388	–	1499	–	1.118
293.15 K, m1 = 0.6111	–	1514.8	–	1.21
293.15 K, m1 = 0.6405	–	1517	–	1.223
293.15 K, m1 = 1.113	–	1546	–	1.428
293.15 K, m1 = 1.258	–	1558.9	–	1.514
293.15 K, m1 = 1.551	–	1578.3	–	1.664
293.15 K, m1 = 1.906	–	1603.4	–	1.931
293.15 K, m1 = 2.145	–	1618.3	–	2.133
293.15 K, m1 = 2.29	–	1627.9	–	2.258
293.15 K, m1 = 2.292	–	1626.3	–	–
293.15 K, m1 = 2.344	–	1631.6	–	2.273
293.15 K, m1 = 2.91	–	1666.2	–	2.846
293.15 K, m1 = 3.472	–	1697.2	–	3.61
293.15 K, m1 = 4.075	–	1724.9	–	4.615
293.15 K, m1 = 4.817	–	1752.8	–	6.303
293.15 K, m1 = 5.133	–	–	85.7	–
293.15 K, m1 = 5.224	–	1762.1	–	7.371
293.15 K, m1 = 5.797	–	1777.6	–	9.658
293.15 K, m1 = 6.245	–	–	86.95	–
293.15 K, m1 = 6.34	–	1787.7	–	11.98
293.15 K, m1 = 6.89	–	1796.2	–	–
294.3 K, m1 = 0.0875	1010.8	–	–	–
295.95 K, m1 = 4.075	1492.7	–	–	–
296.1 K, m1 = 6.89	1712.4	–	–	–
296.15 K, m1 = 0.2466	1034.3	–	–	–
296.25 K, m1 = 4.817	1558.4	–	–	–
296.5 K, m1 = 1.258	1177	–	–	–
297.05 K, m1 = 0.3388	1047.7	–	–	–
297.05 K, m1 = 1.906	1259.3	–	–	–
297.5 K, m1 = 2.29	1304.8	–	–	–
297.8 K, m1 = 0.6111	1087.1	–	–	–
297.85 K, m1 = 0.1329	1016.6	–	–	–
297.9 K, m1 = 2.292	1304.8	–	–	–
297.95 K, m1 = 4.075	1491.1	–	–	–
298 K, m1 = 2.344	1310.8	–	–	–
298.05 K, m1 = 3.472	1432.6	–	–	–
298.15 K, m1 = 0.0875	–	1502.8	–	–
298.15 K, m1 = 0.1329	–	1501.5	–	0.937
298.15 K, m1 = 0.2466	–	1506.6	–	0.968
298.15 K, m1 = 0.3388	–	1512.2	–	0.997
298.15 K, m1 = 0.6111	–	1526.1	–	1.081
298.15 K, m1 = 0.6405	–	1527.3	–	1.093
298.15 K, m1 = 1.113	–	1554.3	–	1.278
298.15 K, m1 = 1.258	–	1570.5	–	1.355
298.15 K, m1 = 1.551	–	1584.3	–	1.489
298.15 K, m1 = 1.906	–	1606.9	–	1.725
298.15 K, m1 = 2.145	–	1620.9	–	1.903
298.15 K, m1 = 2.29	–	1633	–	2.009
298.15 K, m1 = 2.292	–	1628.3	–	–
298.15 K, m1 = 2.344	–	1633.6	–	2.026
298.15 K, m1 = 2.91	–	1665.2	–	2.527
298.15 K, m1 = 3.472	–	1694.4	–	3.188
298.15 K, m1 = 4.075	–	1719.1	–	4.048
298.15 K, m1 = 4.817	1556.8	–	–	5.473
298.15 K, m1 = 5.224	–	–	–	6.362
298.15 K, m1 = 5.797	–	–	–	8.228
298.15 K, m1 = 6.34	–	–	–	10.12

— the NIST ThermoML archive (doi:10.1021/je0302001)
